Data: US11820822B2, “Methods for sensitizing cancer cells to T cell-mediated killing by modulating molecular pathways” (DANA-FARBER CANCER INSTITUTE, INC., priority 2017, dated 2023)

Columns and labels:
[1] = tested on: B16F10-Cas9 cells pulsed with SIINFEKL peptide, co-cultured with OT-I T cells; assay: Genome-scale CRISPR-Cas9 screen, selection with OT-I T cells; format: cell-based, mouse; conditions: Table 3; B16F10-Cas9 cells pulsed with SIINFEKL, co-cultured with OT-I T cells 1:1 for one day; negative = depleted, positive = enriched
[2] = tested on: B16F10-Cas9 cells co-cultured with Pmel-1 T cells; assay: Genome-scale CRISPR-Cas9 screen, selection with Pmel-1 T cells; format: cell-based, mouse; conditions: Table 3; B16F10-Cas9 cells pre-treated with IFNγ, co-cultured with Pmel-1 T cells 1:1 for three days; negative = depleted, positive = enriched

Sequence | OT1 (sgRNA Log(2) fold change, OT-I selection versus control T cells) [1] | Pmel+ (sgRNA Log(2) fold change, Pmel-1 selection versus control T cells) [2]
ATCACCTGGAGCATGCAGGA (chemistry not fully specified) | -0.29 | 2.72
ACGCAATGAAAAGGTTTAGG (chemistry not fully specified) | -2.24 | 2.19
ACAGATACGGAGTGTCCCGT (chemistry not fully specified) | 2.85 | 1.90
TGGAATTATGGTCAAAGTAG (chemistry not fully specified) | -2.20 | 0.96
TCATCTTCGGAGGGCTCAAG (chemistry not fully specified) | 0.18 | 2.75
ATTTCAAGAGATTCTATGCT (chemistry not fully specified) | -2.59 | 1.73
ACTTCAAAGTCCATGGCACA (chemistry not fully specified) | -2.45 | -0.63
GGATAGACGCCCAGCCACTG (chemistry not fully specified) | 3.32 | 9.31
CAAGAGCCAGACCTTGGATG (chemistry not fully specified) | -2.86 | 0.41
ACTTCTGATTGGCGATTCTG (chemistry not fully specified) | -3.78 | -2.49
TAAGCGTTGTTGACTACATG (chemistry not fully specified) | -3.02 | 0.00
TGAGTATACTTGAATTTGAG (chemistry not fully specified) | 5.51 | 3.55
ACTCACTCTGGATAGCATAC (chemistry not fully specified) | 5.27 | 3.80
AGAAGGCAGGCAGAGTGGTG (chemistry not fully specified) | -2.13 | -0.75
TGAATAAATCCATCAGACAG (chemistry not fully specified) | 2.46 | 9.92
TTGTCCGCGTTACTTCCCTG (chemistry not fully specified) | -2.50 | 0.07
ACCTCCGAATGATCAATGGG (chemistry not fully specified) | -2.52 | -0.84
GCAGGGGTCTCCTTATGTCG (chemistry not fully specified) | -2.67 | -1.13
CCGCAGCAGATAGACACCAT (chemistry not fully specified) | -2.54 | -0.11
